Source: the NIST ThermoML archive (doi:10.1016/j.fluid.2005.03.014)

Legend:
[1] = refractive index (Na D-line) (dimensionless); conditions: 298.15 K; 101.33 kPa; Liquid; Standard Abbe refractometry
[2] = Liquid; for mass density: 298.15 K, 101.33 kPa

CN(C)C=O [dimethylformamide]
Conditions | mass density [kg/m3] | refractive index
[1] | – | 1.4265
[2] | 948.72 | –

[2]
Conditions | vapor or sublimation pressure [kPa]
345.45 K | 6.3
350.38 K | 7.81
354.51 K | 9.27
359.05 K | 11.16
362.74 K | 12.93
366.7 K | 15.07
370.69 K | 17.53
374.89 K | 20.48
379.24 K | 23.95
382.97 K | 27.32
386.75 K | 31.1
390.07 K | 34.78
393.2 K | 38.56
396.61 K | 43.04
399.91 K | 47.82
403.1 K | 52.73
405.94 K | 57.53
408.79 K | 62.66
411.23 K | 67.37
413.35 K | 71.68
415.66 K | 76.65
417.84 K | 81.58
419.86 K | 86.33
421.87 K | 91.37
423.7 K | 96.06
425.6 K | 101.2

CC(=O)OCC(C)C [2-methylpropyl ethanoate]
Conditions | mass density [kg/m3] | refractive index
[1] | – | 1.3876
[2] | 866.12 | –

CC(C)CO [2-methyl-1-propanol]
Conditions | mass density [kg/m3] | refractive index
[1] | – | 1.3937
[2] | 797.83 | –
